Measured values taken from patent US4719048A, “Crysene compound” (Burroughs Wellcome Co., priority 1984, dated 1988).
Structures can show the parent of a compound that is named as a salt.

Tests used:
[1] = tested on: P388/0 tumor cells (lymphocytic leukemia); assay: Lymphocytic Leukemia P388/0 Test (survival of tumor-bearing mice); assay type: in vivo, mouse (CD2-F1); conditions: ip, days 1, 5, 9; at optimal dose (mg/kg): 1B 121; 1C 115; 2 100; 3 100; 6G 65; 18B 88; 19H 110; 6H 60; 7 110; 9 300; 10B 1013; 11C 150; 12G 90; 5F 225; 13D 303; 14 196; 15B 250; 16 1012; 4B 180; active if ≥120%
From the text: (§1) Methods for evaluating the antitumor activity of these compounds are essentially those used in the Tumor Panel by the Developmental Therapeutics Program, Division of Cancer Treatment, National Cancer Institute, A. Goldin, et al., Methods in Cancer Research, Vol. XVI, p. 165, Academic Press (1979). Some modifications, in dose level and schedule have been made to increase the testing efficiency.
(§2) CD2-F1 mice, of the same sex, weighing 20±3 g, are used for this test. Control and test animals are injected intraperitoneally with a suspension of ~10^6 viable P388/0 tumor cells on day 0. In each test, several dose levels which bracket the LD20 of the compound are evaluated; each dose level group contains six animals. The test compounds are prepared either in physiologic saline containing 0.05% Tween 80 or distilled water containing 5% dextrose and are administered intraperitoneally on days 1, 5, and 9 relative to tumor implant. Doses are on a mg/kg basis according to individual animals' body weights. The day of death for each animal is recorded, the median identified for each group and the ratios of median survival time for treated (T)/control (C) groups are calculated. The criterion for activity is T/C×100≥120%.

B16 melanoma cells = assay: Melanotic Melanoma B16 test (survival); assay type: in vivo, mouse (B6C3-F1); conditions: B16 ip; drug ip days 1, 5, 9; dose (mg/kg): 1C 100; 6G 50; 3 70; 2 75; 18B 70; active if >125%
From the text: as §1
B6C3-F1 mice of the same sex, weighing 20±3 g, are used for this test. A suspension of B16 cells is prepared from a non-necrotic portion of solid tumor tissue obtained from a passage mouse. One gram of tumor is homogenized in 9 mL ice-cold Earle's salts solution and filtered through 1000 mesh screen to remove debris. 0.5 mL of the resulting brei is injected intraperitoneally into each animal. Dosing is carried out as in the P388/0 and L1210 tests. Days of death are recorded for a 60 day period and T/C ratio calculated as in the P388/0 and L1210 tests. The criterion for activity is T/C×100>125%.

LD20 in the P388/0 test = assay type: in vivo, mouse (CD2-F1); conditions: ip, days 1, 5 and 9
Procedure: as §2
^A Values in parentheses are the highest nontoxic dose where the
LD20 was not determined.

Colon 38 carcinoma = assay: Colon 38 Carcinoma Test (tumor weight); assay type: in vivo, mouse (tumor from C57B1/6); conditions: ip, days 1, 5, 9; dose 120 mg/kg; day 20; active if ≤42%
From the text: as §1
This chemically-induced tumor arose in a C57B1/6 mouse and is maintained as a solid tumor in that mouse strain. The subcutaneously growing solid tumor is aseptically excised from passage mice and placed in sterile saline. The tumor is trimmed free of visible necrotic and connective tissue, then divided into 2-3 mm cubes. A cube is implanted subcutaneously in the ventral thoracic region with a sterile trochar on day 0. In each test several dose levels which bracket the LD20 for the compound are evaluated. Ten animals are included in each dose level group and thirty animals in the untreated control group. The test compounds are prepared either in physiologic saline containing 0.05% Tween 80 or distilled water containing 5% dextrose and are administered intraperitoneally on days 1, 5 and 9 after tumor implant. […] At day 20, the animals are sacrificed and the longest (L) and shortest (W) dimensions of each tumor measured with vernier calipers. Tumor weight is calculated from the formula [formula] […]

Structure (SMILES) | T/C × 100% (Excluding 30 Day Survivors), median survival time treated/control [1] | LD20 (LD20 in the P388/0 test) | other results
C[C@@H](O)C(C)(NCc1cc2c3ccccc3ccc2c2ccccc12)[C@@H](C)O (relative stereo) [Example 5F] | +255% |  | 
C[C@H](O)[C@@](C)(CO)NCc1cc2c3ccccc3ccc2c2ccccc12 (relative stereo) [Example 6G, (+-)(2R*,3S*)-2-((6-chrysenylmethyl)amino)-2-methyl-1,3-butanediol hydrochloride.1/3H2 O] | +245% | 53 mg/kg | T/C × 100% Excluding 60 day Survivors (B16 melanoma cells): +160%
CS(=O)(=O)O.C[C@H](O)[C@@](C)(CO)NCc1cc2c3ccccc3ccc2c2ccccc12 (relative stereo) [Example 6H, (+-)(2R*,3S*)-2-((6-chrysenylmethyl)amino)-2-methyl-1,3-butanediol methanesulfonate] | +235% | 60 mg/kg | 
C[C@@H](O)[C@@](C)(CO)NCc1cc2c3ccccc3ccc2c2ccccc12.Cl (relative stereo) [Example 7, (+-)-(2R*,3R*)-2-((6-chrysenylmethyl)amino)-2-methyl-1,3-butanediol hydrochloride] | +285% | 100 mg/kg | 
CC(CO)(CO)NCc1cc2c3ccccc3ccc2c2ccccc12.Cl [Example 1B, 2-((6-chrysenylmethyl)amino)-2-methyl-1,3-propanediol hydrochloride] |  | 140 mg/kg | 
CC(CO)(CO)NCc1cc2c3ccccc3ccc2c2ccccc12 [Example 1C, 2-((6-chrysenylmethyl)amino)-2-methyl-1,3-propanediol methanesulfonate] |  |  | T/C × 100% (tumor weight) (Colon 38 carcinoma): 36%
Cl.OCC(CO)(CO)NCc1cc2c3ccccc3ccc2c2ccccc12 [Example 2, 2-((6-chrysenylmethyl)amino)-2-hydroxymethyl-1,3-propanediol hydrochloride] |  | 100 mg/kg | 
CCC(CO)(CO)NCc1cc2c3ccccc3ccc2c2ccccc12.Cl [Example 3, 2-((6-chrysenylmethyl)amino)-2-ethyl-1,3-propanediol hydrochloride] |  | 100 mg/kg | 
CC(CO)(CO)NCc1cc2c3ccccc3c(Cl)cc2c2ccccc12 [Example 4B, 2-(((12-chloro-6-chrysenyl)methyl)amino)-2-methyl-1,3-propanediol methanesulfonate.1/3H2 O] | +155% | 180 mg/kg | 
COCC(C)(CO)NCc1cc2c3ccccc3ccc2c2ccccc12.Cl (stereo not drawn) [Example 9D, 3-methoxy-2-((6-chrysenylmethyl)amino)-2-methyl-1-propanol hydrochloride] | +181% |  | 
O[C@@H]1CCC[C@H](O)[C@H]1NCc1cc2c3ccccc3ccc2c2ccccc12 [Example 10B, (1α,2β,3α)-2-((6-chrysenylmethyl)amino)-1,3-cyclohexanediol hydrochloride] | +205% |  | 
CC(C)C(CO)(CO)NCc1cc2c3ccccc3ccc2c2ccccc12 [Example 11C, 2-((6-chrysenylmethyl)amino)-2-isopropyl-1,3-propanediol hydrochloride.H2 O] |  | 150 mg/kg | 
CC(CO)(CCO)NCc1cc2c3ccccc3ccc2c2ccccc12 (stereo not drawn) [Example 12G, 2-((6-chrysenylmethyl)amino)-2-methyl-1,4-butanediol hydrochloride.1/3EtOH] |  | 90 mg/kg | 
CS(=O)(=O)O.C[C@H](O)C(NCc1cc2c3ccccc3ccc2c2ccccc12)[C@@H](C)O (stereo partly drawn) [Example 13D, meso-3-((6-chrysenylmethyl)amino)-2,4-pentanediol methanesulfonate] | +200% |  | 
OCC(CO)NCc1cc2c3ccccc3ccc2c2ccccc12 [Example 14, 2-((6-chrysenylmethyl)amino)-1,3-propanediol methanesulfonate] |  | 160 mg/kg | 
CCc1cc2c3ccccc3c(CNC(C)(CO)CO)cc2c2ccccc12 [Example 15B, 2-(((12-ethyl-6-chrysenyl)methyl)amino)-2-methyl-1,3-propanediol methanesulfonate] |  | 150 mg/kg | 
CC(=O)OCC(C)(COC(C)=O)NCc1cc2c3ccccc3ccc2c2ccccc12 [Example 16, 2-((6-chrysenylmethyl)amino)-2-methyl-1,3-propanediol diacetate] | +145% |  | 
CC(C)(CO)NCc1cc2c3ccccc3ccc2c2ccccc12.Cl [Example 18B, 2-((6-chrysenylmethyl)amino)-2-methyl-1-propanol hydrochloride] |  | 80 mg/kg | 
CC(CO)(CO)NCc1ccc2ccc3c4ccccc4ccc3c2c1 [Example 19H, 2-((3-chrysenylmethyl)amino)-2-methyl-1,3-propanediol methanesulfonate] |  | 150 mg/kg | 
